Experimental data taken from publication PMC7815789, “Degradation of complex arabinoxylans by human colonic Bacteroidetes” (Nature Communications, 2021).

How the values were obtained:
Type in all cases: biochemical
[1] = target: T1, BACINT_01033-CE1 (Bi1033-CE1) (Bacteroides intestinalis, UniProt B3C969); test: ferulic acid release, HPLC-DAD; details: 200 uM substrate, 50 nM enzyme, 50 mM sodium citrate, 150 mM NaCl, pH 6.5, 37 °C, 10 min
T1 construct: dimer; N-terminal Ig-like domain, esterase domain residues 126-383
T1 sequence (B3C969 24-387): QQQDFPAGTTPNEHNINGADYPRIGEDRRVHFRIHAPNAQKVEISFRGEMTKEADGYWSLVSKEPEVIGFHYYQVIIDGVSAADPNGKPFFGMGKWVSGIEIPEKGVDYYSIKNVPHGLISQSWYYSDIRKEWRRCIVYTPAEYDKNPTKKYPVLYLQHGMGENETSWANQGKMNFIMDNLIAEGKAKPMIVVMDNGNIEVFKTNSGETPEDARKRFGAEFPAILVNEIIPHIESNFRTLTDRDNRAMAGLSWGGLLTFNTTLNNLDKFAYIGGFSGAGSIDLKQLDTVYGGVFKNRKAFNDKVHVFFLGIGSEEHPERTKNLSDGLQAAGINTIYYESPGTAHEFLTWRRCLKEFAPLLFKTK

[2] = target: T2, BACINT_01038-CE6/CE1 (Bi1038-CE6/CE1) (Bacteroides intestinalis, UniProt B3C974); test: ferulic acid release, HPLC-DAD; details: […] substrate, […] enzyme, […] sodium citrate, […] NaCl, pH […] °C, […] min
T2 construct: two modules (CE6, CE1)
T2 sequence (B3C974 59-680): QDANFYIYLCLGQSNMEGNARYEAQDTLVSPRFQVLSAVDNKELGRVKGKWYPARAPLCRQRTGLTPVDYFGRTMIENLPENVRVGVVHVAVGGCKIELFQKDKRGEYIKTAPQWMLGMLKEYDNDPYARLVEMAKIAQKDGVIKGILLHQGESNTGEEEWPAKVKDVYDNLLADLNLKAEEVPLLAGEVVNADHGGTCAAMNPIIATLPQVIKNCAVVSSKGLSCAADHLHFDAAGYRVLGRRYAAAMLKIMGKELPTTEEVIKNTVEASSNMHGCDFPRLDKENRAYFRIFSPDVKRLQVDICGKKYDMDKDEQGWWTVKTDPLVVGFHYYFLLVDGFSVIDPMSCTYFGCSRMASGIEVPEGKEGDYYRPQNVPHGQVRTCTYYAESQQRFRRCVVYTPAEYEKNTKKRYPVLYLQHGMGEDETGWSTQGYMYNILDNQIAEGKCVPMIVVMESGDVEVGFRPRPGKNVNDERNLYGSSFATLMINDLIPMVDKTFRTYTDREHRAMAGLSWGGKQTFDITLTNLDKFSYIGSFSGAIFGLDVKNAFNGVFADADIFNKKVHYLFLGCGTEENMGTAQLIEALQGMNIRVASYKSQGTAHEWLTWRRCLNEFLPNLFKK

[3] = target: T3, BACINT_01042-GH3 (Bi1042-GH3) (Bacteroides intestinalis, UniProt B3C978); test: xylose release, HPAEC-PAD; details: pH […] °C, […] h, […] enzyme
T3 sequence (B3C978 19-862): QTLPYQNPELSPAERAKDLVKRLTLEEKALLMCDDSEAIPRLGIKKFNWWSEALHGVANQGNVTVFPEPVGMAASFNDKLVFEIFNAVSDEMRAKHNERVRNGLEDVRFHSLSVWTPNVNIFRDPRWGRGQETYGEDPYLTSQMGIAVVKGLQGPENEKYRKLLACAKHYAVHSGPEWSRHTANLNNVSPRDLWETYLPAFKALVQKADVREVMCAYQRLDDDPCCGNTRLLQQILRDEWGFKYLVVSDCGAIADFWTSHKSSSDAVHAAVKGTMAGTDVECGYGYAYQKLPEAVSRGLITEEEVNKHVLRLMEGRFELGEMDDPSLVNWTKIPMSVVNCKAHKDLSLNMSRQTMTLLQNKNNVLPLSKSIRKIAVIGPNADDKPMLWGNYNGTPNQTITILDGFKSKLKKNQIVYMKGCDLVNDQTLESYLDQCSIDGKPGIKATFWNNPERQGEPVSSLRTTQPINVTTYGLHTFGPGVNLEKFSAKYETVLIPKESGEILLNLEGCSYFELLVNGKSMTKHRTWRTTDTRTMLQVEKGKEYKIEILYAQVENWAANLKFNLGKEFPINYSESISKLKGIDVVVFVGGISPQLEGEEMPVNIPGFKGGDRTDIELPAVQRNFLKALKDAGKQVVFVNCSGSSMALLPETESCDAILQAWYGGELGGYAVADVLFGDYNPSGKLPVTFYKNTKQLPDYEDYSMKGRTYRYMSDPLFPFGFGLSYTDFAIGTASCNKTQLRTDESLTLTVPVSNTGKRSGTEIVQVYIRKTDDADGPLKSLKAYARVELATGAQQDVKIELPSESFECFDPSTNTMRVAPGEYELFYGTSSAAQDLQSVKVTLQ

[4] = target: T4, BACINT_01039-CE1 (Bi1039-CE1) (Bacteroides intestinalis, UniProt B3C975); test: pNP release at […] nm; details: 1 mM substrate, 50 nM enzyme, 0.1 M MOPS pH 7.5, 37 °C
T4 construct: dimer; crystal structure residues 25-382, esterase domain 126-382
T4 sequence (B3C975 25-382): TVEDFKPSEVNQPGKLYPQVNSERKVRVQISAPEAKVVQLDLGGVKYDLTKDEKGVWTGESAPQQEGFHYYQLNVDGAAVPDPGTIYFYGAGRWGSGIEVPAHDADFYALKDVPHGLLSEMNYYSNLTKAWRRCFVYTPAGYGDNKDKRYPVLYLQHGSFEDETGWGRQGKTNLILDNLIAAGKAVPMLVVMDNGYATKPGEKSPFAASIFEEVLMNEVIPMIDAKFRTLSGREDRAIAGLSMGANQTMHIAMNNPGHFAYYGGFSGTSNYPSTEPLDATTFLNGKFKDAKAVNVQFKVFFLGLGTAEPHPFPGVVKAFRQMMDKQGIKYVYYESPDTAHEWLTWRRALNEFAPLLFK

[5] = target: T2, BACINT_01038-CE6/CE1 (Bi1038-CE6/CE1); test: pNP release at […] nm; details: […] substrate, […] enzyme, […] MOPS pH […] °C

Compound: COc1cc(/C=C/C(=O)OC[C@@H]2OC(O)[C@H](O)[C@H]2O)ccc1O (stereo partly drawn) [FA, feruloylated monosaccharide (FA)]
- ferulic acid release, HPLC-DAD [1]: exhibits low ferulic acid cleavage activity on feruloylated monosaccharide (FA)

Compound: COc1cc(/C=C/C(=O)OC[C@@H]2O[C@@H](O[C@@H]3[C@@H](O)[C@H](O[C@@H]4COC(O)[C@H](O)[C@H]4O)OC[C@H]3O)[C@H](O)[C@H]2O)ccc1O (stereo partly drawn) [FAXX, feruloylated trisaccharide (FAXX)]
- ferulic acid release, HPLC-DAD [2]: showed some activity on both FA and FAXX

Compound: OC1OC[C@@H](O[C@@H]2OC[C@@H](O)[C@H](O)[C@H]2O)[C@H](O)[C@H]1O (stereo partly drawn) [X2, xylobiose]
- xylose release, HPAEC-PAD [3]: Bi1042-GH3 cleaves xylo-oligosaccharides to xylose or X1

Compound: OC1OC[C@@H](O[C@@H]2OC[C@@H](O[C@@H]3OC[C@@H](O)[C@H](O)[C@H]3O)[C@H](O)[C@H]2O)[C@H](O)[C@H]1O (stereo partly drawn) [X3, xylotriose]
- xylose release, HPAEC-PAD [3]: Bi1042-GH3 cleaves xylo-oligosaccharides to xylose or X1

Compound: CC(=O)Oc1ccc([N+](=O)[O-])cc1 [pNP acetate]
- pNP release at 400 nm [4]: activity of the wild-type Bi1039-CE1, observed with pNP acetate as the substrate
- pNP release at 400 nm [5]: activities on the synthetic substrates were from Bi1040-FAE and Bi1038-CE6/CE1, respectively
